Results on two molecules are retold here after patent US12527777B2, “Sustained release pyridostigmine compositions” (priority 2018, dated 2026).

The conditions of series [1]: in vivo; cited from earlier work.
A short description of series [2]: Effect of relative humidity on adsorption of water vapour (deliquescence). Format: physicochemical.

For `CN(C)C(=O)Oc1ccc[n+](C)c1` [Pyridostigmine, (1-methylpyridin-1-ium-3-yl) N,N-dimethylcarbamate], in series [1], the biological half-life is 2-3 hours.
As to `CN(C)C(=O)Oc1ccc[n+](C)c1` [pyridostigmine bromide], the “relative humidity (RH) at which deliquescence is exhibited” value in series [2] is 33%.
